Assay results as given in patent US8362031B2, “Lonidamine analogues and treatment of polycystic kidney disease” (University of Kansas, priority 2004, dated 2013).

Legend:
rats = test: Animal tolerance studies of GMZ; type: in vivo, rat
Excerpt: The parent compound of GMZ, Lonidamine, inhibits the chloride channel CFTR, interferes with cellular energy output and has been used as an anticancer drug. […] GMZ binds directly to Hsp90-beta and eukaryotic elongation factor eEF1A as shown by affinity chromatography and direct binding studies.

[1] = target: Hsp82 (the yeast homologue of Hsp90) (Saccharomyces cerevisiae, UniProt P02829); test: Cross-linking of biotinylated analogue to purified protein, competition with excess RC-MC-110; type: binding; conditions: 10-fold excess of RC-MC-110, purified protein, UV cross-linking
Procedure: In this example, the binding of cross-linked biotinylated RC-MC-110 ([…]) to Hsp82 (the yeast homologue of Hsp90) was investigated by a cross-linking and biotinylated analogue of RC-MC-110.
The buffer solution in this examples was comprised of 50 mM Tris-HCl, pH 7.4, 50 mM NaCl, 5 mM EDTA, and 50 mM NaF.
First, the protein was diluted with the buffer solution above to give a final concentration of 0.278 mg/ml. The stock protein concentration was 22 mg/ml in 5 μl aliquots.
Next the drug was diluted as follows. Stock concentrations of RC-MC-210 (see structure below) were 0.6 mg/ml (cross-linked biotinylated analogue of RC-MC-110). A 300 μl aliquot was thawed, and separated into two 150 μl aliquots. Dilutions were in the order of 1, ½, ¼, ⅛, 1/16 of the stock solutions. The stock concentration of the competition solution was 0.6 mg/ml RC-MC-210 (549 μM), and about 0.9 mg of RC-MC-110 was dissolved in 150 μl of RC-MC-210 solution to give a final concentration of 6 mg/ml (14.5 mM).
The competition solution had the same concentration of RC-MC-210, but a 10-fold excess of RC-MC-110 (non-biotinylated) to its respective concentration (e.g: ½ RC-MC-210, then the RC-MC-110 was 10× that concentration.)
To prepare of the incubation reactions, 18 μl of protein from a 0.277 mg/ml diluted stock (about 5 μg of protein) was incubated with 2 μl of drug for 1 hr at 4° C. with gentle rocking. […]

Chain of Hsp82 (the yeast homologue of Hsp90) (P02829 whole entry): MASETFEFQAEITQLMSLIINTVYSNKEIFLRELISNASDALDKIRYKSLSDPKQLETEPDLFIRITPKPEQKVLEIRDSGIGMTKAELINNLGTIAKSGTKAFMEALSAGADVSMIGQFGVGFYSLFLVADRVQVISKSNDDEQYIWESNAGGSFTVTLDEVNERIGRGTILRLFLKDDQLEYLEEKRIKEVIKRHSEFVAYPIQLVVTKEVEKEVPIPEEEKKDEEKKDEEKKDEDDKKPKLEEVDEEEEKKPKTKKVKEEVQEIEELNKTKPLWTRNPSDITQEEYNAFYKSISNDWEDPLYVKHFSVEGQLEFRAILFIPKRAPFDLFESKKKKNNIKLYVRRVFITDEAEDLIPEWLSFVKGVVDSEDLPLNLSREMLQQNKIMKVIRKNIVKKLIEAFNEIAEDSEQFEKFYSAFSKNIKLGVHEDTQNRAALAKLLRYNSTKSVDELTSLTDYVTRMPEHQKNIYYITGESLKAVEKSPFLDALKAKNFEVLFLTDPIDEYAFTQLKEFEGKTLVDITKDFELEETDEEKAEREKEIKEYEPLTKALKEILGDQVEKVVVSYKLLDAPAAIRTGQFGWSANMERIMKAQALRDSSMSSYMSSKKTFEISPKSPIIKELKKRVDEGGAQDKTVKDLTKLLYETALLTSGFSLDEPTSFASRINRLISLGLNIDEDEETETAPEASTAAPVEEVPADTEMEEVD

Compound | histopathology (rats; 25 mg/kg of IP dosage) | behavioral or body weight changes (rats; rats, five days post-treatment) | Competition of the binding of the cross-linked biotinylated analogue to Hsp82 [1]
O=C(O)CCc1nn(Cc2ccc(Cl)cc2Cl)c2cc(C(F)(F)F)ccc12 [GMZ, 3-[1-(2,4-dichlorobenzyl)-6-trifluoromethyl-1H-indazol-3-yl]-propionic acid] | no apparent histopathology in any organ | no evidence of behavioral or body weight changes | 
O=C(O)/C=C/c1nn(Cc2ccc(Cl)cc2Cl)c2cc(C(F)(F)F)ccc12 [RC-MC-110, trans 3-[1-(2,4-dichlorobenzyl)-6-trifluoromethyl-1H-indazol-3-yl]-acrylic acid] |  |  | the binding competes with excess RC-MC-110
